Experiment: Comparative bulk density determination
Type: physicochemical
Settings: for Bulk density: powder sample

Tapped density (1250 taps)	Bulk density	Tapped density (1250 taps) (listed as ‘Form D’ Vlasartan)	Bulk density (listed as ‘Form D’ Vlasartan)	SMILES
0.504 gm/ml	0.37 gm/ml	–	–	CCCCC(=O)N(Cc1ccc(-c2ccccc2-c2nnn[nH]2)cc1)[C@H](C(=O)O)C(C)C [Amorphous valsartan, (S)-N-(1-Carboxy-2-methyl-prop-1-yl)-N-pentanoyl-N-[2′-(1H-tetrazol-5-yl)bi-phenyl-4-ylmethyl]-amine]
–	–	0.6139 gm/ml	0.4561 gm/ml	CCCCC(=O)N(Cc1ccc(-c2ccccc2-c2nnn[nH]2)cc1)[C@H](C(=O)O)C(C)C [Form D, (S)-N-(1-Carboxy-2-methyl-prop-1-yl)-N-pentanoyl-N-[2′-(1H-tetrazol-5-yl)bi-phenyl-4-ylmethyl]-amine]

Source: patent US20080261959A1, “Novel crystalline forms of (S)-N-(1-Carboxy-2-methyl-prop-1-y)-N-pentanoyl-N[2'-(1H-tetrazol-5-yl)bi-phenyl-4-ylmethyl]-amine” (priority 2005, published 2008)
